According to the NIST ThermoML archive (doi:10.1016/j.jct.2003.12.005):
Numbers after ± are expanded uncertainties.

Experiments:
[1] = 101.3 kPa, Liquid
[2] = xn = mol fraction of the nth substance listed; conditions: 101.3 kPa, Liquid

CCCCCCCCCCCC [dodecane]
[1]
Conditions | mass density [kg/m3] | speed of sound [m/s] | viscosity [mPa·s]
293.15 K | 748.5 ± 0.5 | 1297 ± 2 | 1.454 ± 0.023
298.15 K | 744.9 ± 0.5 | 1278 ± 2 | 1.327 ± 0.021
303.15 K | 741.3 ± 0.5 | 1259 ± 2 | 1.219 ± 0.02

CCC(C)O (stereo not drawn) [butan-2-ol] + CCCCCCCCCC
[2], x1 = 1
Conditions | mass density [kg/m3] | speed of sound [m/s] | viscosity [mPa·s]
293.15 K | 806.8 ± 0.3 | 1230 ± 2 | 3.623 ± 0.058
298.15 K | 802.7 ± 0.3 | 1212 ± 2 | 2.995 ± 0.049
303.15 K | 798.5 ± 0.3 | 1194 ± 2 | 2.493 ± 0.042

CCC(C)O (stereo not drawn) [butan-2-ol] + CCCCCCCC
[2]
Conditions | mass density, 293.15 K [kg/m3] | mass density, 298.15 K [kg/m3] | mass density, 303.15 K [kg/m3] | speed of sound, 293.15 K [m/s] | speed of sound, 298.15 K [m/s] | speed of sound, 303.15 K [m/s] | viscosity, 293.15 K [mPa·s] | viscosity, 298.15 K [mPa·s] | viscosity, 303.15 K [mPa·s]
x1 = 0.0481 | 704.6 ± 0.3 | 700.5 ± 0.4 | 696.4 ± 0.4 | 1190 ± 2 | 1169 ± 2 | 1148 ± 2 | 0.541 ± 0.015 | 0.508 ± 0.014 | 0.478 ± 0.014
x1 = 0.0974 | 707.2 ± 0.3 | 703.1 ± 0.3 | 698.9 ± 0.4 | 1187 ± 2 | 1167 ± 2 | 1146 ± 2 | 0.554 ± 0.015 | 0.519 ± 0.014 | 0.488 ± 0.014
x1 = 0.1984 | 713.3 ± 0.3 | 709.2 ± 0.3 | 704.9 ± 0.3 | 1184 ± 2 | 1163 ± 2 | 1143 ± 2 | 0.582 ± 0.016 | 0.544 ± 0.015 | 0.511 ± 0.014
x1 = 0.289 | 719.4 ± 0.3 | 715.2 ± 0.3 | 711 ± 0.3 | 1182 ± 2 | 1161 ± 2 | 1141 ± 2 | 0.624 ± 0.017 | 0.579 ± 0.016 | 0.541 ± 0.015
x1 = 0.3964 | 727.7 ± 0.3 | 723.5 ± 0.3 | 719.1 ± 0.3 | 1181 ± 2 | 1161 ± 2 | 1141 ± 2 | 0.697 ± 0.018 | 0.644 ± 0.017 | 0.599 ± 0.016
x1 = 0.4923 | 736.2 ± 0.3 | 731.9 ± 0.3 | 727.5 ± 0.3 | 1183 ± 2 | 1162 ± 2 | 1142 ± 2 | 0.78 ± 0.02 | 0.713 ± 0.019 | 0.645 ± 0.017
x1 = 0.5931 | 746.5 ± 0.3 | 742.1 ± 0.3 | 737.8 ± 0.3 | 1187 ± 2 | 1166 ± 2 | 1146 ± 2 | 0.927 ± 0.024 | 0.84 ± 0.022 | 0.761 ± 0.02
x1 = 0.6922 | 758.1 ± 0.3 | 753.8 ± 0.3 | 749.4 ± 0.3 | 1193 ± 2 | 1173 ± 2 | 1153 ± 2 | 1.162 ± 0.029 | 1.031 ± 0.026 | 0.919 ± 0.023
x1 = 0.7987 | 772.5 ± 0.3 | 768.2 ± 0.3 | 763.9 ± 0.3 | 1202 ± 2 | 1182 ± 2 | 1163 ± 2 | 1.574 ± 0.04 | 1.361 ± 0.034 | 1.191 ± 0.029
x1 = 0.8988 | 788.3 ± 0.3 | 784 ± 0.3 | 779.7 ± 0.3 | 1214 ± 2 | 1195 ± 2 | 1176 ± 2 | 2.267 ± 0.055 | 1.932 ± 0.047 | 1.662 ± 0.04
x1 = 0.9495 | 797.2 ± 0.3 | 793 ± 0.3 | 788.8 ± 0.3 | 1222 ± 2 | 1203 ± 2 | 1185 ± 2 | 2.809 ± 0.068 | 2.353 ± 0.057 | 1.99 ± 0.048
x1 = 1 | 806.8 ± 0.3 | 802.7 ± 0.3 | 798.5 ± 0.3 | 1230 ± 2 | 1212 ± 2 | 1194 ± 2 | 3.623 ± 0.086 | 2.995 ± 0.072 | 2.493 ± 0.061

CCC(C)O (stereo not drawn) [butan-2-ol]
[1]
Conditions | mass density [kg/m3] | speed of sound [m/s] | viscosity [mPa·s]
293.15 K | 806.8 ± 0.3 | 1230 ± 2 | 3.623 ± 0.086
298.15 K | 802.7 ± 0.3 | 1212 ± 2 | 2.995 ± 0.072
303.15 K | 798.5 ± 0.3 | 1194 ± 2 | 2.493 ± 0.061

CCCCCCCCCCCC [dodecane] + CCC(C)O
[2]
Conditions | mass density, 293.15 K [kg/m3] | mass density, 298.15 K [kg/m3] | mass density, 303.15 K [kg/m3] | speed of sound, 293.15 K [m/s] | speed of sound, 298.15 K [m/s] | speed of sound, 303.15 K [m/s] | viscosity, 293.15 K [mPa·s] | viscosity, 298.15 K [mPa·s] | viscosity, 303.15 K [mPa·s]
x2 = 0 | 748.5 ± 0.5 | 744.9 ± 0.5 | 741.3 ± 0.5 | 1297 ± 2 | 1278 ± 2 | 1259 ± 2 | 1.454 ± 0.023 | 1.327 ± 0.021 | 1.219 ± 0.02
x2 = 0.0486 | 749.3 ± 0.5 | 745.6 ± 0.5 | 741.9 ± 0.5 | 1293 ± 2 | 1274 ± 2 | 1255 ± 2 | 1.44 ± 0.023 | 1.314 ± 0.021 | 1.204 ± 0.019
x2 = 0.0976 | 750.2 ± 0.4 | 746.4 ± 0.4 | 742.7 ± 0.4 | 1289 ± 2 | 1270 ± 2 | 1251 ± 2 | 1.431 ± 0.023 | 1.305 ± 0.021 | 1.194 ± 0.019
x2 = 0.2046 | 752.5 ± 0.4 | 748.7 ± 0.4 | 744.9 ± 0.4 | 1282 ± 2 | 1263 ± 2 | 1243 ± 2 | 1.429 ± 0.023 | 1.299 ± 0.021 | 1.188 ± 0.019
x2 = 0.2956 | 754.9 ± 0.4 | 751.1 ± 0.4 | 747.2 ± 0.4 | 1276 ± 2 | 1256 ± 2 | 1237 ± 2 | 1.432 ± 0.023 | 1.297 ± 0.021 | 1.179 ± 0.019
x2 = 0.3959 | 758.1 ± 0.4 | 754.2 ± 0.4 | 750.3 ± 0.4 | 1268 ± 2 | 1249 ± 2 | 1230 ± 2 | 1.457 ± 0.023 | 1.316 ± 0.021 | 1.196 ± 0.019
x2 = 0.4979 | 762.2 ± 0.4 | 758.3 ± 0.4 | 754.3 ± 0.4 | 1261 ± 2 | 1242 ± 2 | 1222 ± 2 | 1.503 ± 0.024 | 1.351 ± 0.021 | 1.22 ± 0.019
x2 = 0.598 | 767.2 ± 0.4 | 763.2 ± 0.4 | 759.1 ± 0.4 | 1255 ± 2 | 1235 ± 2 | 1216 ± 2 | 1.603 ± 0.026 | 1.425 ± 0.023 | 1.276 ± 0.02
x2 = 0.7021 | 773.9 ± 0.4 | 769.8 ± 0.4 | 765.6 ± 0.4 | 1248 ± 2 | 1229 ± 2 | 1209 ± 2 | 1.798 ± 0.029 | 1.576 ± 0.025 | 1.392 ± 0.022
x2 = 0.8008 | 781.9 ± 0.3 | 777.8 ± 0.3 | 773.6 ± 0.3 | 1242 ± 2 | 1223 ± 2 | 1204 ± 2 | 2.068 ± 0.034 | 1.785 ± 0.028 | 1.566 ± 0.024
x2 = 0.9002 | 792.7 ± 0.3 | 788.5 ± 0.3 | 784.3 ± 0.3 | 1236 ± 2 | 1217 ± 2 | 1199 ± 2 | 2.576 ± 0.042 | 2.184 ± 0.035 | 1.866 ± 0.03
x2 = 0.9504 | 799.1 ± 0.3 | 794.9 ± 0.3 | 790.7 ± 0.3 | 1233 ± 2 | 1215 ± 2 | 1196 ± 2 | 2.989 ± 0.049 | 2.508 ± 0.041 | 2.122 ± 0.034
